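Growth conditions: 96-well plates. Treatment: test compound, 48 hours, 5 concentrations. Analysis: linear interpolation between bracketing concentrations; unreached endpoints set to highest concentration. GI50 = concentration required for 50% inhibition of growth.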 Calls of active or inactive are those of the source. No stated cut-off is given here; in the data, active = GI50 up to about 1.1 µM and inactive = higher.
What was measured:
Test in all cases: growth of human tumour cells (NCI), 48 h
786-0 = tested on: 786-0
A498 = tested on: A498
A549 = tested on: A549
ACHN = tested on: ACHN
BT-549 = tested on: BT-549
CAKI-1 = tested on: CAKI-1
CCRF-CEM = tested on: CCRF-CEM
COLO 205 = tested on: COLO 205
DU-145 = tested on: DU-145
EKVX = tested on: EKVX
HCC 2998 = tested on: HCC 2998
HCT-116 = tested on: HCT-116
HCT-15 = tested on: HCT-15
HOP-62 = tested on: HOP-62
HOP-92 = tested on: HOP-92
HT-29 = tested on: HT-29
Hs-578T = tested on: Hs-578T
IGROV-1 = tested on: IGROV-1
K562 = tested on: K562
KM12 = tested on: KM12
LOX IMVI = tested on: LOX IMVI
M14 = tested on: M14
MCF7 = tested on: MCF7
MDA-MB-231 = tested on: MDA-MB-231
MDA-MB-435 = tested on: MDA-MB-435
MDA-N = tested on: MDA-N
MOLT-4 = tested on: MOLT-4
Malme-3M = tested on: Malme-3M
NCI-H226 = tested on: NCI-H226
NCI-H23 = tested on: NCI-H23
NCI-H460 = tested on: NCI-H460
NCI-H522 = tested on: NCI-H522
NCI/ADR-RES = tested on: NCI/ADR-RES
OVCAR-3 = tested on: OVCAR-3
OVCAR-4 = tested on: OVCAR-4
OVCAR-5 = tested on: OVCAR-5
OVCAR-8 = tested on: OVCAR-8
PC-3 = tested on: PC-3
RPMI-8226 = tested on: RPMI-8226
RXF 393 = tested on: RXF 393
SF-268 = tested on: SF-268
SF-295 = tested on: SF-295
SF-539 = tested on: SF-539
SK-MEL-28 = tested on: SK-MEL-28
SK-MEL-2 = tested on: SK-MEL-2
SK-MEL-5 = tested on: SK-MEL-5
SK-OV-3 = tested on: SK-OV-3
SN12C = tested on: SN12C
SNB-19 = tested on: SNB-19
SR = tested on: SR
SW-620 = tested on: SW-620
T47D = tested on: T47D
TK-10 = tested on: TK-10
U-251 = tested on: U-251
UACC-257 = tested on: UACC-257
UACC-62 = tested on: UACC-62
UO-31 = tested on: UO-31

`COc1ccc(/C=C2\CN(C)CC3=C2OC(N)=C(C#N)C3c2ccc(OC)cc2)cc1` (configuration not stated) was tested, and the GI50 (786-0) was 30.5 µM (inactive), the GI50 (A498) was 35.4 µM (inactive) and the GI50 (A549) was 23 µM (inactive). The GI50 (ACHN) was 29.6 µM (inactive), the GI50 (BT-549) was > 100 µM (inactive) and the GI50 (CAKI-1) was 69.7 µM (inactive). The GI50 (CCRF-CEM) was 7.57 µM (inactive), the GI50 (COLO 205) was > 52.1 µM (inactive) and the GI50 (DU-145) was > 76.6 µM (inactive). The GI50 (EKVX) was 43.4 µM (inactive), the GI50 (HCC 2998) was 23.8 µM (inactive) and the GI50 (HCT-116) was 24.3 µM (inactive). The GI50 (HCT-15) was 55.6 µM, the GI50 (HOP-62) was > 77.4 µM (inactive) and the GI50 (HOP-92) was 4.66 µM (inactive). For the same molecule, the GI50 (HT-29) was > 56.8 µM (inactive), the GI50 (Hs-578T) was 88.1 µM (inactive) and the GI50 (IGROV-1) was 15.9 µM (inactive). For the same molecule, the GI50 (K562) was 33.6 µM (inactive), the GI50 (KM12) was > 56.5 µM (inactive) and the GI50 (LOX IMVI) was 42.7 µM (inactive). The GI50 (M14) was 97.1 µM (inactive), the GI50 (MCF7) was 19.5 µM (inactive) and the GI50 (MDA-MB-231) was 42.4 µM (inactive). The GI50 (MDA-MB-435) was 17.7 µM (inactive), the GI50 (MDA-N) was 21.8 µM (inactive) and the GI50 (MOLT-4) was 5.81 µM (inactive). The GI50 (Malme-3M) was 14.3 µM (inactive), the GI50 (NCI-H226) was > 100 µM (inactive) and the GI50 (NCI-H23) was > 68.2 µM (inactive). For the same molecule, the GI50 (NCI-H460) was 24.9 µM (inactive), the GI50 (NCI-H522) was 14.5 µM (inactive) and the GI50 (NCI/ADR-RES) was 51.9 µM (inactive). For the same molecule, the GI50 (OVCAR-3) was 21.6 µM (inactive), the GI50 (OVCAR-4) was 21.6 µM (inactive) and the GI50 (OVCAR-5) was > 100 µM (inactive). For the same molecule, the GI50 (OVCAR-8) was 19.9 µM (inactive), the GI50 (PC-3) was > 25.8 µM (inactive) and the GI50 (RPMI-8226) was 9.82 µM (inactive). For the same molecule, the GI50 (RXF 393) was 20.7 µM (inactive), the GI50 (SF-268) was 48.6 µM (inactive) and the GI50 (SF-295) was 57.5 µM (inactive). For the same molecule, the GI50 (SF-539) was > 100 µM (inactive), the GI50 (SK-MEL-28) was > 100 µM (inactive) and the GI50 (SK-MEL-2) was > 45.9 µM (inactive). For the same molecule, the GI50 (SK-MEL-5) was > 62.1 µM (inactive), the GI50 (SK-OV-3) was 5.64 µM (inactive) and the GI50 (SN12C) was 35.4 µM (inactive). The GI50 (SNB-19) was > 86.7 µM (inactive), the GI50 (SR) was 15.2 µM (inactive) and the GI50 (SW-620) was > 94.2 µM (inactive). For the same molecule, the GI50 (T47D) was 13.6 µM (inactive), the GI50 (TK-10) was > 84.5 µM (inactive) and the GI50 (U-251) was 38 µM (inactive). For the same molecule, the GI50 (UACC-257) was 50.5 µM (inactive), the GI50 (UACC-62) was > 100 µM (inactive) and the GI50 (UO-31) was > 50.5 µM (inactive).
